Measured values: patent US12528788B2, “Pesticidally active benzene- and azine-amide compounds” (SYNGENTA CROP PROTECTION AG, priority 2018, dated 2026)

Columns and labels:
Format in all cases: in vivo
Spodoptera littoralis [1] = experiment: Example B9: Spodoptera littoralis (Egyptian cotton leaf worm), cotton leaf discs sprayed, L1 larvae; settings: foliar, 72 h, application rate of 200 ppm, 3 days after infestation, read-out: control in at least one of the three categories (mortality, anti-feedant effect or growth inhibition)
Diabrotica balteata = experiment: Example B1: Diabrotica balteata (corn root worm), maize sprouts sprayed, L2 larvae; settings: 96 h, application rate of 200 ppm, 4 days after infestation, L2 larvae on maize sprouts, read-out: control in at least one of the two categories (mortality or growth inhibition)
Experimental: Example B1: Diabrotica balteata (Corn Root Worm)
Maize sprouts placed onto an agar layer in 24-well microtiter plates were treated with aqueous test solutions prepared from 10′000 ppm DMSO stock solutions by spraying. After drying, the plates were infested with L2 larvae (6 to 10 per well). The samples were assessed for mortality and growth inhibition in comparison to untreated samples 4 days after infestation.

Myzus persicae [2] = experiment: Example B13: Myzus persicae (green peach aphid), 96-well sucrose solution; settings: 120 h, application rate of 50 ppm, 5 days after infestation
Source text: Example B13: Myzus persicae (Green Peach Aphid)
Test compounds prepared from 10′000 ppm DMSO stock solutions were applied by a liquid handling robot into 96-well microtiter plates and mixed with a sucrose solution. Parafilm was stretched over the 96-well microtiter plate and a plastic stencil with 96 holes was placed onto the plate. Aphids were sieved into the wells directly onto the Parafilm. The infested plates were closed with a gel blotting card and a second plastic stencil and then turned upside down. The samples were assessed for mortality 5 days after infestation.

Plutella xylostella [3] = experiment: Example B14: Plutella xylostella (diamondback moth), 96-well artificial diet; settings: 216 h, application rate of 500 ppm, 9 days after infestation
Experimental: Example B14: Plutella xylostella (Diamondback Moth)
96-well microtiter plates containing artificial diet were treated with aqueous test solutions, prepared from 10′000 ppm DMSO stock solutions, by a liquid handling robot. After drying, eggs (˜30 per well) were infested onto a netted lid which was suspended above the diet. The eggs hatch and L1 larvae move down to the diet. The samples were assessed for mortality 9 days after infestation.

Chilo suppressalis = experiment: Example B4: Chilo suppressalis (striped rice stemborer), artificial diet, L2 larvae; settings: 144 h, application rate of 200 ppm, 6 days after infestation, read-out: control in at least one of the three categories (mortality, anti-feedant effect or growth inhibition)
Experimental: Example B4: Chilo suppressalis (Striped Rice Stemborer)
24-well microtiter plates with artificial diet were treated with aqueous test solutions prepared from 10′000 ppm DMSO stock solutions by pipetting. After drying, the plates were infested with L2 larvae (6-8 per well). The samples were assessed for mortality, anti-feeding effect, and growth inhibition in comparison to untreated samples 6 days after infestation. Control of Chilo suppressalis by a test sample is given when at least one of the categories mortality, anti-feedant effect, and growth inhibition is higher than the untreated sample.

Tetranychus urticae = experiment: Example B11: Tetranychus urticae (two-spotted spider mite) feeding/contact activity; settings: foliar, 192 h, application rate of 200 ppm, 8 days after infestation, bean leaf discs, mixed population (mobile stages)
Experimental: Example B11: Tetranychus urticae (Two-Spotted Spider Mite): Feeding/Contact Activity
Bean leaf discs on agar in 24-well microtiter plates were sprayed with aqueous test solutions prepared from 10′000 ppm DMSO stock solutions. After drying the leaf discs were infested with a mite population of mixed ages. The samples were assessed for mortality on mixed population (mobile stages) 8 days after infestation.

Plutella xylostella [4] = experiment: Example B5: Plutella xylostella (diamond back moth), artificial diet, 24-well, eggs; settings: 192 h, application rate of 200 ppm, 8 days after infestation, read-out: control in at least one of the two categories (mortality or growth inhibition)
Experimental: Example B5: Plutella xylostella (Diamond Back Moth)
24-well microtiter plates with artificial diet were treated with aqueous test solutions prepared from 10′000 ppm DMSO stock solutions by pipetting. After drying, Plutella eggs were pipetted through a plastic stencil onto a gel blotting paper and the plate was closed with it. The samples were assessed for mortality and growth inhibition in comparison to untreated samples 8 days after infestation.

Euschistus heros = experiment: Example B2: Euschistus heros (neotropical brown stink bug), soybean leaves sprayed, N2 nymphs; settings: 120 h, application rate of 200 ppm, 5 days after infestation, N2 nymphs on soybean leaves, read-out: control in at least one of the two categories (mortality or growth inhibition)
Experimental: Example B2: Euschistus heros (Neotropical Brown Stink Bug)
Soybean leaves on agar in 24-well microtiter plates were sprayed with aqueous test solutions prepared from 10′000 ppm DMSO stock solutions. After drying the leaves were infested with N2 nymphs. The samples were assessed for mortality and growth inhibition in comparison to untreated samples 5 days after infestation.

Myzus persicae [5] = experiment: Example B8: Myzus persicae (green peach aphid) intrinsic activity; settings: 120 h, test rate of 12 ppm, 5 days after infestation, sucrose solution
Source text: Example B8: Myzus persicae (Green Peach Aphid). Intrinsic Activity
Test compounds prepared from 10′000 ppm DMSO stock solutions were applied by pipette into 24-well microtiter plates and mixed with sucrose solution. The plates were closed with a stretched Parafilm. A plastic stencil with 24 holes was placed onto the plate and infested pea seedlings were placed directly on the Parafilm. The infested plate was closed with a gel blotting paper and another plastic stencil and then turned upside down. The samples were assessed for mortality 5 days after infestation.

Spodoptera littoralis [6] = experiment: Example B10: Spodoptera littoralis (Egyptian cotton leaf worm), uptake by lettuce roots from agar; settings: 144 h, test rate of 12.5 ppm, 6 days after infestation, lettuce grown on treated agar, read-out: control in at least one of the three categories (mortality, anti-feeding, or growth inhibition)
Source text: Example B10: Spodoptera littoralis (Egyptian Cotton Leaf Worm)
Test compounds were applied by pipette from 10′000 ppm DMSO stock solutions into 24-well plates and mixed with agar. Lettuce seeds were placed onto the agar and the multi well plate was closed by another plate which contained also agar. After 7 days the compound was absorbed by the roots and the lettuce grew into the lid plate. The lettuce leaves were then cut off into the lid plate. Spodoptera eggs were pipetted through a plastic stencil onto a humid gel blotting paper and the lid plate was closed with it. The samples were assessed for mortality, anti-feedant effect and growth inhibition in comparison to untreated samples 6 days after infestation.

Myzus persicae [7] = experiment: Example B7: Myzus persicae (green peach aphid) systemic activity; settings: 144 h, test rate of 24 ppm, 6 days after placing seedlings into test solutions, pea seedlings
Experimental: Example B7: Myzus persicae (Green Peach Aphid) Systemic Activity
Roots of pea seedlings infested with an aphid population of mixed ages were placed directly into aqueous test solutions prepared from 10′000 DMSO stock solutions. The samples were assessed for mortality 6 days after placing seedlings into test solutions.

Myzus persicae [8] = experiment: Example B6: Myzus persicae (green peach aphid) feeding/contact activity; settings: foliar, 144 h, application rate of 200 ppm, 6 days after infestation, sunflower leaf discs
Experimental: Example B6: Myzus persicae (Green Peach Aphid) Feeding/Contact Activity
Sunflower leaf discs were placed onto agar in a 24-well microtiter plate and sprayed with aqueous test solutions prepared from 10′000 ppm DMSO stock solutions. After drying, the leaf discs were infested with an aphid population of mixed ages. The samples were assessed for mortality 6 days after infestation.

CC(NC(=O)c1cc(C(F)(F)F)cc(C(F)(F)F)c1)c1nccnc1-c1ccc(F)cn1 (stereo not drawn) [Compound P18, N-[1-[3-(5-fluoro-2-pyridyl)pyrazin-2-yl]ethyl]-3,5-bis(trifluoromethyl)benzamide]
≥ 80%: percent control (mortality, anti-feedant effect or growth inhibition) at 200 ppm (Spodoptera littoralis [1]) | percent control (mortality or growth inhibition) at 200 ppm (Diabrotica balteata) | mortality at 50 ppm (Myzus persicae [2]) | mortality at 500 ppm (Plutella xylostella [3]) | percent control (mortality, anti-feedant effect or growth inhibition) at 200 ppm (Chilo suppressalis) | mortality at 200 ppm (Tetranychus urticae)

CC(NC(=O)c1cc(OCC(F)(F)F)cc(C(F)(F)F)c1)c1nccnc1-c1ncccn1 (stereo not drawn) [Compound P17, N-[1-(3-pyrimidin-2-ylpyrazin-2-yl)ethyl]-3-(2,2,2-trifluoroethoxy)-5-(trifluoromethyl)benzamide]
≥ 80%: percent control (mortality, anti-feedant effect or growth inhibition) at 200 ppm (Spodoptera littoralis [1]) | percent control (mortality or growth inhibition) at 200 ppm (Plutella xylostella [4]) | percent control (mortality or growth inhibition) at 200 ppm (Euschistus heros) | mortality at 12 ppm (Myzus persicae [5]) | mortality at 50 ppm (Myzus persicae [2]) | mortality at 500 ppm (Plutella xylostella [3]) | percent control (mortality, anti-feedant effect or growth inhibition) at 200 ppm (Chilo suppressalis)

CC(NC(=O)c1cc(Cl)cc(C(F)(F)F)c1)c1nccnc1-c1ncccn1 (stereo not drawn) [Compound P21, 3-chloro-N-[1-(3-pyrimidin-2-ylpyrazin-2-yl)ethyl]-5-(trifluoromethyl)benzamide]
≥ 80%: percent control (mortality, anti-feedant effect or growth inhibition) at 200 ppm (Spodoptera littoralis [1]) | percent control (mortality or growth inhibition) at 200 ppm (Diabrotica balteata) | percent control (mortality or growth inhibition) at 200 ppm (Plutella xylostella [4]) | percent control (mortality or growth inhibition) at 200 ppm (Euschistus heros) | percent control (mortality, anti-feeding or growth inhibition) at 12.5 ppm (Spodoptera littoralis [6]) | mortality at 12 ppm (Myzus persicae [5]) | mortality at 50 ppm (Myzus persicae [2]) | mortality at 500 ppm (Plutella xylostella [3]) | percent control (mortality, anti-feedant effect or growth inhibition) at 200 ppm (Chilo suppressalis)

CC(NC(=O)c1cc(C(F)F)cc(C(F)(F)F)c1)c1nccnc1-c1ncccn1 (stereo not drawn) [Compound P22, 3-(difluoromethyl)-N-[1-(3-pyrimidin-2-ylpyrazin-2-yl)ethyl]-5-(trifluoromethyl)benzamide]
≥ 80%: percent control (mortality, anti-feedant effect or growth inhibition) at 200 ppm (Spodoptera littoralis [1]) | mortality at 24 ppm (Myzus persicae [7]) | percent control (mortality or growth inhibition) at 200 ppm (Diabrotica balteata) | percent control (mortality or growth inhibition) at 200 ppm (Plutella xylostella [4]) | percent control (mortality or growth inhibition) at 200 ppm (Euschistus heros) | percent control (mortality, anti-feeding or growth inhibition) at 12.5 ppm (Spodoptera littoralis [6]) | mortality at 12 ppm (Myzus persicae [5]) | mortality at 50 ppm (Myzus persicae [2]) | mortality at 500 ppm (Plutella xylostella [3]) | percent control (mortality, anti-feedant effect or growth inhibition) at 200 ppm (Chilo suppressalis)

CC(NC(=O)c1cc(C(F)(F)F)nc(C(F)(F)F)c1)c1nccnc1-c1ncccn1 (stereo not drawn) [Compound P15, N-[1-(3-pyrimidin-2-ylpyrazin-2-yl)ethyl]-2,6-bis(trifluoromethyl)pyridine-4-carboxamide]
≥ 80%: percent control (mortality, anti-feedant effect or growth inhibition) at 200 ppm (Spodoptera littoralis [1]) | percent control (mortality or growth inhibition) at 200 ppm (Diabrotica balteata) | percent control (mortality or growth inhibition) at 200 ppm (Plutella xylostella [4]) | percent control (mortality or growth inhibition) at 200 ppm (Euschistus heros) | mortality at 12 ppm (Myzus persicae [5]) | mortality at 50 ppm (Myzus persicae [2]) | mortality at 500 ppm (Plutella xylostella [3]) | percent control (mortality, anti-feedant effect or growth inhibition) at 200 ppm (Chilo suppressalis)

CC(c1nccnc1-c1ncccn1)N(CC1CC1)C(=O)c1cc(OC(F)F)cc(C(F)(F)F)c1 (stereo not drawn) [Compound P24, N-(cyclopropylmethyl)-3-(difluoromethoxy)-N-[1-(3-pyrimidin-2-ylpyrazin-2-yl)ethyl]-5-(trifluoromethyl)benzamide]
≥ 80%: percent control (mortality, anti-feedant effect or growth inhibition) at 200 ppm (Spodoptera littoralis [1]) | percent control (mortality or growth inhibition) at 200 ppm (Diabrotica balteata) | mortality at 200 ppm (Myzus persicae [8]) | percent control (mortality or growth inhibition) at 200 ppm (Plutella xylostella [4]) | mortality at 12 ppm (Myzus persicae [5]) | mortality at 50 ppm (Myzus persicae [2]) | percent control (mortality, anti-feedant effect or growth inhibition) at 200 ppm (Chilo suppressalis) | mortality at 200 ppm (Tetranychus urticae)

CC(NC(=O)c1cc(C(F)(F)F)cc(C(F)(F)F)c1)c1nccnc1-c1ncccn1 (stereo not drawn) [Compound P12, N-[1-(3-pyrimidin-2-ylpyrazin-2-yl)ethyl]-3,5-bis(trifluoromethyl)benzamide]
≥ 80%: percent control (mortality, anti-feedant effect or growth inhibition) at 200 ppm (Spodoptera littoralis [1]) | percent control (mortality or growth inhibition) at 200 ppm (Diabrotica balteata) | percent control (mortality or growth inhibition) at 200 ppm (Plutella xylostella [4]) | percent control (mortality or growth inhibition) at 200 ppm (Euschistus heros) | mortality at 12 ppm (Myzus persicae [5]) | percent control (mortality, anti-feedant effect or growth inhibition) at 200 ppm (Chilo suppressalis)

CC(NC(=O)c1cc(OCC(F)F)cc(C(F)(F)F)c1)c1nccnc1-c1ncccn1 (stereo not drawn) [Compound P14, 3-(2,2-difluoroethoxy)-N-[1-(3-pyrimidin-2-ylpyrazin-2-yl)ethyl]-5-(trifluoromethyl)benzamide]
≥ 80%: percent control (mortality, anti-feedant effect or growth inhibition) at 200 ppm (Spodoptera littoralis [1]) | mortality at 24 ppm (Myzus persicae [7]) | percent control (mortality or growth inhibition) at 200 ppm (Plutella xylostella [4]) | percent control (mortality or growth inhibition) at 200 ppm (Euschistus heros) | percent control (mortality, anti-feeding or growth inhibition) at 12.5 ppm (Spodoptera littoralis [6]) | mortality at 12 ppm (Myzus persicae [5]) | mortality at 50 ppm (Myzus persicae [2]) | mortality at 500 ppm (Plutella xylostella [3]) | percent control (mortality, anti-feedant effect or growth inhibition) at 200 ppm (Chilo suppressalis)

CC(NC(=O)c1cc(Cl)cc(OC(F)(F)F)c1)c1nccnc1-c1ncccn1 (stereo not drawn) [Compound P16, 3-chloro-N-[1-(3-pyrimidin-2-ylpyrazin-2-yl)ethyl]-5-(trifluoromethoxy)benzamide]
≥ 80%: percent control (mortality, anti-feedant effect or growth inhibition) at 200 ppm (Spodoptera littoralis [1]) | percent control (mortality or growth inhibition) at 200 ppm (Diabrotica balteata) | percent control (mortality or growth inhibition) at 200 ppm (Plutella xylostella [4]) | percent control (mortality or growth inhibition) at 200 ppm (Euschistus heros) | percent control (mortality, anti-feeding or growth inhibition) at 12.5 ppm (Spodoptera littoralis [6]) | mortality at 12 ppm (Myzus persicae [5]) | mortality at 50 ppm (Myzus persicae [2]) | mortality at 500 ppm (Plutella xylostella [3]) | percent control (mortality, anti-feedant effect or growth inhibition) at 200 ppm (Chilo suppressalis)

CC(NC(=O)c1cc(Br)cc(C(F)(F)F)c1)c1nccnc1-c1ncccn1 (stereo not drawn) [Compound P20, 3-bromo-N-[1-(3-pyrimidin-2-ylpyrazin-2-yl)ethyl]-5-(trifluoromethyl)benzamide]
≥ 80%: percent control (mortality, anti-feedant effect or growth inhibition) at 200 ppm (Spodoptera littoralis [1]) | percent control (mortality or growth inhibition) at 200 ppm (Diabrotica balteata) | percent control (mortality or growth inhibition) at 200 ppm (Plutella xylostella [4]) | percent control (mortality or growth inhibition) at 200 ppm (Euschistus heros) | percent control (mortality, anti-feeding or growth inhibition) at 12.5 ppm (Spodoptera littoralis [6]) | mortality at 12 ppm (Myzus persicae [5]) | mortality at 50 ppm (Myzus persicae [2]) | mortality at 500 ppm (Plutella xylostella [3]) | percent control (mortality, anti-feedant effect or growth inhibition) at 200 ppm (Chilo suppressalis)
